Measured values reported in publication PMC9225712, “Rational design of biodegradable sulphonamide candidates treating septicaemia by synergistic dual inhibition of COX-2/PGE2 axis and DHPS enzyme” (Journal of Enzyme Inhibition and Medicinal Chemistry, 2022).
Marks after values point to notes of the source that are not given here.

Key:
[1] = system: Escherichia coli (RCMB 010052); assay: Inhibition zone, agar cup diffusion; details: RCMB010052, 24 h, read-out: inhibition zones (IZ) E.coli
[2] = system: E. coli C11; details: for ED50, protective effect against bacteremic infection, Escherichia coli: mice, challenge dose 7.1x10^3 CFU/mouse ip, intragastric once a day for 7 days, survival
[3] = system: Gram-positive and Gram-negative bacteria; assay: In vitro antibacterial screening, whole panel; type: cell-based; details: whole bacterial panel, result in words
[4] = system: Streptococcus mutans (RCMB 0100172); assay: Inhibition zone, agar cup diffusion; details: RCMB0100172, 24 h, read-out: inhibition zones (IZ) S. mutans
[5] = system: Staphylococcus aureus (RCMB 0100183); assay: Inhibition zone, agar cup diffusion; details: RCMB0100183, 24 h, read-out: inhibition zones (IZ) S. aureus
[6] = system: carrageenan-induced paw edoema; assay: Carrageenan-induced paw edoema in mice; details: for ED50: Mus musculus, 8 h, read-out: ED50 (95% confidence level); for Thickness of edoema 0h / percentage anti-inflammatory activity (AI%) 2h / Thickness of edoema 2h / percentage anti-inflammatory activity (AI%) 4h / Thickness of edoema 4h / percentage anti-inflammatory activity (AI%) 6h / Thickness of edoema 6h / Thickness of edoema 8h: mice, po 10 µmol/kg b.wt.; for Thickness of edoema 0h: 0 h (before carrageenan); for Thickness of edoema 0h / Thickness of edoema 2h / Thickness of edoema 4h / Thickness of edoema 6h / Thickness of edoema 8h: Mean ± SEM, n = 5; for Thickness of edoema 2h: 2 h after carrageenan; for Thickness of edoema 4h: 4 h after carrageenan; for Thickness of edoema 6h: 6 h after carrageenan; for Thickness of edoema 8h: 8 h after carrageenan
[7] = system: Staphylococcus epidermidis (RCMB 0100183); assay: Inhibition zone, agar cup diffusion; details: RCMB0100183, 24 h, read-out: inhibition zones (IZ) S. epidermidis
[8] = system: Pseudomonas aeruginosa (RCMB 0100243); assay: Inhibition zone, agar cup diffusion; details: RCMB0100243, 24 h, read-out: inhibition zones (IZ) P.aeruginosa
[9] = system: Proteus vulgaris (RCMB 010085); assay: Inhibition zone, agar cup diffusion; details: RCMB010085, 24 h, read-out: inhibition zones (IZ) P. vulgaris
[10] = molecular target: T1, human recombinant COX-2 (Homo sapiens, UniProt P35354); assay: In vitro COX-2 enzymatic assay (Cayman kit 560131); details: for SI COX-1/COX-2: COX-2 selectivity index: COX-1 IC50/COX-2 IC50
T1 sequence (P35354 18-604): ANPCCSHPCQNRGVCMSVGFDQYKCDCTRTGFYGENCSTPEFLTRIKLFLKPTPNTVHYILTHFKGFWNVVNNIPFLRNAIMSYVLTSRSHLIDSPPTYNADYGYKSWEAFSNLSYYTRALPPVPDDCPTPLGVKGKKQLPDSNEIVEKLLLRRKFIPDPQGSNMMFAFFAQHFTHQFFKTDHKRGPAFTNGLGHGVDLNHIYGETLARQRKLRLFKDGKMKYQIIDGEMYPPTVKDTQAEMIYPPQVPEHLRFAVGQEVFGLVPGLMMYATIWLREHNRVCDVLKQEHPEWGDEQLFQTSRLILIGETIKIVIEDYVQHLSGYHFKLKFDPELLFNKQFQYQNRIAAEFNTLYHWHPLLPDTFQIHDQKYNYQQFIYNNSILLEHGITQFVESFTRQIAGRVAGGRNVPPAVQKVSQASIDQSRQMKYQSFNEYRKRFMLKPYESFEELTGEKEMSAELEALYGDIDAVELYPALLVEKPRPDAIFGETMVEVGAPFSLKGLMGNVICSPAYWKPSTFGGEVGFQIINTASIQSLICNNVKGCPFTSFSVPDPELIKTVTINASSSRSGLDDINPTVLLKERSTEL

[11] = system: Salmonella typhi (RCMB 0100104); assay: Inhibition zone, agar cup diffusion; type: cell-based; details: Salmonella enterica, 24 h, read-out: inhibition zones (IZ) S. typhi
[12] = system: gastric layers; assay: Gastric ulcerogenic activity; details: fasted male Wistar rats, oral 30 µmol/kg twice at 4 h interval
[13] = system: PGE2; assay: Estimation of rat plasma PGE2; details: po 10 µmol/kg b.wt., 8 h after carrageenan; for % inhibition of PGE2-production: rat serum; for PGE2 serum conc.: rat, Mean ± SEM, n = 5
[14] = system: Bacillus subtilis (RCMB 0100162); assay: Inhibition zone, agar cup diffusion; details: RCMB0100162, 24 h, read-out: inhibition zones (IZ) B. subtillis
[15] = system: S. aureus Smith; details: for ED50: Staphylococcus aureus, in Mus musculus, read-out: ED50 against S. aureus infection; for ED50, protective effect against bacteremic infection, Staphylococcus aureus: mice, challenge dose 9.5x10^6 CFU/mouse ip, intragastric once a day for 7 days, survival
[16] = system: Shigella dysenteriae (RCMB 0100542); assay: Inhibition zone, agar cup diffusion; type: cell-based; details: RCMB0100542, 24 h, read-out: inhibition zones (IZ) S. dysenteriae
[17] = molecular target: T2, ovine COX-1 (Ovis aries, UniProt P05979); assay: In vitro COX-1 enzymatic assay (Cayman kit 560131); type: biochemical; details: Mean ± SEM of triplicate determinations
T2 construct: purchased Cayman Chemicals Inc. 560131
T2 sequence (P05979 25-600): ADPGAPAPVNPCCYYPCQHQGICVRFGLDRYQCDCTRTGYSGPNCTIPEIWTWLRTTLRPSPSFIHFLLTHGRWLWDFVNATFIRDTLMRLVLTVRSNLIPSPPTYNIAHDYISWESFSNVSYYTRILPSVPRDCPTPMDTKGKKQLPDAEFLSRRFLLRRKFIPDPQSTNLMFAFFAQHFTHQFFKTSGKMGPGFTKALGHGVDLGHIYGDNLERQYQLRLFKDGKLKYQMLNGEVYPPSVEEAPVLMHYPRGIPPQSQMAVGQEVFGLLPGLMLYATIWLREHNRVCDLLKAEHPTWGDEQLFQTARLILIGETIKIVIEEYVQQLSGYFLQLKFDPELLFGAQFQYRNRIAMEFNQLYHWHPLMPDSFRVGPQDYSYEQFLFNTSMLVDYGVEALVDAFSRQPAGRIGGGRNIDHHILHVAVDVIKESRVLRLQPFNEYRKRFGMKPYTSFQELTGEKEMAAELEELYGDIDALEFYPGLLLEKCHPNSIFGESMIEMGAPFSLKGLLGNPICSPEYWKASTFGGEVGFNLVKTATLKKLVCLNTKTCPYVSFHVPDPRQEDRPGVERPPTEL

Row | SMILES | zone of inhibition at 1000 µg/mL [1] | ED50, protective effect against bacteremic infection, Escherichia coli [2] | in vitro antibacterial activity [3] | zone of inhibition at 1000 µg/mL [4] | zone of inhibition at 1000 µg/mL [5] | ED50 [6] | Thickness of edoema 0h [6] | percentage anti-inflammatory activity (AI%) 2h [6] | Thickness of edoema 2h [6] | percentage anti-inflammatory activity (AI%) 4h [6] | Thickness of edoema 4h [6] | percentage anti-inflammatory activity (AI%) 6h [6] | Thickness of edoema 6h [6] | Thickness of edoema 8h [6] | zone of inhibition at 1000 µg/mL [7] | zone of inhibition at 1000 µg/mL [8] | zone of inhibition at 1000 µg/mL [9] | IC50 [10] | SI COX-1/COX-2 [10] | zone of inhibition at 1000 µg/mL [11] | also measured
1 | CCCCNC(=O)c1cc(/N=N/c2ccc(S(=O)(=O)Nc3nccs3)cc2)ccc1O [Compound 5b, N-Butyl-2-hydroxy-5-((4-(N-(thiazol-2-yl)sulfamoyl)phenyl)diazenyl) benzamide] | 14 mm | 415.7 µmol/kg/day | weak in vitro antibacterial activity | 27 mm | 29 mm | 18.7 µmol/kg | 0.68 ± 0.01 mm | (0%) | 0.95 ± 0.04 mm | (20.83%) | 1.19 ± 0.01 mm | (45.85%) | 1.11 ± 0.01 mm | 1.01 ± 0.02 mm | 34 mm | 16 mm | 19 mm | 0.07 ± 0.0005 µM | 187.7 | 14 mm | ED50 ([2]; Escherichia coli, C11, in Mus musculus, read-out: ED50 against E.coli infection): 416 µmol/kg; Gastric ulcerogenic effect, histopathological examination of gastric layers [12]: gastrointestinal safety profile; % inhibition of PGE2-production [13]: 65.70%; PGE2 serum conc. [13]: 452.954 ± 6.48 pg/mL; zone of inhibition at 1000 µg/mL [14]: 20 mm; ED50 [15]: 413 µmol/kg; ED50, protective effect against bacteremic infection, Staphylococcus aureus [15]: 413.1 µmol/kg/day; zone of inhibition at 1000 µg/mL [16]: 22 mm; IC50 [17]: 12.2 ± 0.06 µM
2 | O=C(c1cc(/N=N/c2ccc(S(=O)(=O)Nc3ncccn3)cc2)ccc1O)N1CCOCC1 [Compound 5n, 4-((4-Hydroxy-3-(morpholine-4-carbonyl)phenyl)diazenyl)-N-(pyrimidin-2-yl) benzenesulfonamide] | 17 mm | 367.1 µmol/kg/day | weak in vitro antibacterial activity | 28 mm | 16 mm | 14.4 µmol/kg | 0.66 ± 0.004 mm | (-8.42%) | 1.03 ± 0.03 mm | (10.42%) | 1.29 ± 0.01 mm | (51.71%) | 0.99 ± 0.05 mm | 0.90 ± 0.01 mm | 33 mm | 14 mm | 18 mm | 0.07 ± 0.0005 µM | 153.6 | 14 mm | Gastric ulcerogenic effect, histopathological examination of gastric layers [12]: gastrointestinal safety profile; % inhibition of PGE2-production [13]: 55.18%; PGE2 serum conc. [13]: 591.842 ± 5.96 pg/mL; zone of inhibition at 1000 µg/mL [14]: 17 mm; ED50 [15]: 353 to 413 µmol/kg; ED50, protective effect against bacteremic infection, Staphylococcus aureus [15]: 397.6 µmol/kg/day; zone of inhibition at 1000 µg/mL [16]: 24 mm; IC50 [17]: 10.6 ± 0.08 µM
3 | Cc1ccnc(NS(=O)(=O)c2ccc(/N=N/c3ccc(O)c(C(=O)N4CCOCC4)c3)cc2)n1 [Compound 5o, 4-((4-Hydroxy-3-(morpholine-4-carbonyl)phenyl)diazenyl)-N-(4-methylpyrimidin-2-yl) benzenesulfonamide] | 16 mm | 306.4 µmol/kg/day | weak in vitro antibacterial activity | 27 mm | 21 mm | 13.3 µmol/kg | 0.65 ± 0.004 mm | (6.32%) | 0.89 ± 0.01^c mm | (43.06%) | 0.82 ± 0.02^c mm | (63.41%) | 0.75 ± 0.02^c mm | 0.64 ± 0.02^c mm | 35 mm | 18 mm | 19 mm | 0.06 ± 0.0008 µM | 211.5 | 18 mm | Gastric ulcerogenic effect, histopathological examination of gastric layers [12]: erosion in the gastric layers; % inhibition of PGE2-production [13]: 72.92%; PGE2 serum conc. [13]: 357.636 ± 7.48 pg/mL; zone of inhibition at 1000 µg/mL [14]: 20 mm; ED50 [15]: 353 to 413 µmol/kg; ED50, protective effect against bacteremic infection, Staphylococcus aureus [15]: 352.7 µmol/kg/day; zone of inhibition at 1000 µg/mL [16]: 23 mm; IC50 [17]: 12.9 ± 0.05 µM
